Like-named read-outs stand apart in the source and are kept apart here.
Tested on: TNFα secretion from PMA/ionomycin stimulated white blood cells from human buffy coat
Assay: TNFα secretion assay, PMA/ionomycin stimulation
Method: Various concentrations of each test compound were added at the time of stimulation. […] After the plate was washed with 0.1% Tween 20/PBS, an HRP-luminescent substrate was added to each well and light intensity measured using a LJL Analyst plate luminometer.

C[C@H]1C[C@H]2[C@@H]3CCC4=CC(=O)C=C[C@]4(C)[C@@]3(F)[C@@H](O)C[C@]2(C)[C@@]1(O)C(=O)CO [Betamethasone] was tested, and the inhibition at […] (read-out: inhibition of TNFα secretion, Betamethasone 38 nM, Imipramine nM: 0, 99, 394, 1578, 6311, 25000) was 35.8%, the inhibition at […] (read-out: inhibition of TNFα secretion, Betamethasone 38 nM, Nortriptyline nM: 0, 52, 208, 834, 3336, 13000) was 9.93% and the inhibition at 2.434 µM (read-out: inhibition of TNFα secretion, Betamethasone 2434 nM, Nortriptyline nM: 0, 52, 208, 834, 3336, 13000) was 38.9%. The inhibition at […] (read-out: percent inhibition of TNFα secretion, Betamethasone 38 nM, Amoxapine nM: 0, 12, 50, 199, 797, 3187) was 26.3%, the inhibition at […] (read-out: percent inhibition of TNFα secretion, Betamethasone 38 nM, Clomipramine nM: 0, 45, 178, 712, 2848, 11000) was 36% and the inhibition at […] (read-out: percent inhibition of TNFα secretion, Betamethasone 38 nM, Desipramine nM: 0, 50, 200, 799, 3197, 13000) was 17.3%. The inhibition at 2.434 µM (read-out: percent inhibition of TNFα secretion, Betamethasone 2434 nM, Desipramine nM: 0, 50, 200, 799, 3197, 13000) was 48.9%.
CCCC1O[C@@H]2C[C@H]3[C@@H]4CCC5=CC(=O)C=C[C@]5(C)[C@H]4[C@@H](O)C[C@]3(C)[C@]2(C(=O)CO)O1 (stereo partly drawn) [Budesonide, budesonide] showed an inhibition at […] (read-out: inhibition of TNFα secretion, Budesonide 35 nM, Imipramine nM: 0, 99, 394, 1578, 6311, 25000) of 42.1%, an inhibition at […] (read-out: inhibition of TNFα secretion, Budesonide 35 nM, Nortriptyline nM: 0, 52, 208, 834, 3336, 13000) of 36% and an inhibition at […] (read-out: inhibition of TNFα secretion, Budesonide 35 nM, Protriptyline nM: 0, 52, 208, 834, 3336, 13000) of 44.5%. It also gave an inhibition at […] (read-out: percent inhibition of TNFα secretion, Budesonide 35 nM, Amitriptyline nM: 0, 50, 199, 796, 3186, 13000) of 42%, an inhibition at […] (read-out: percent inhibition of TNFα secretion, Budesonide 35 nM, Amoxapine nM: 0, 12, 50, 199, 797, 3187) of 36.7% and an inhibition at […] (read-out: percent inhibition of TNFα secretion, Budesonide 35 nM, Clomipramine nM: 0, 45, 178, 712, 2848, 11000) of 45.3%. For the same compound, the inhibition at […] (read-out: percent inhibition of TNFα secretion, Budesonide 35 nM, Desipramine nM: 0, 50, 200, 799, 3197, 13000) was 48.1%.
With C[C@@H]1C[C@H]2[C@@H]3CCC4=CC(=O)C=C[C@]4(C)[C@@]3(F)[C@@H](O)C[C@]2(C)[C@@]1(O)C(=O)CO [Dexamethasone, dexamethasone] the inhibition at […] (read-out: inhibition of TNFα secretion, Dexamethasone 38 nM, Desipramine nM: 0, 50, 200, 799, 3197, 13000) was 31.3%, the inhibition at […] (read-out: inhibition of TNFα secretion, Dexamethasone 38 nM, Imipramine nM: 0, 99, 394, 1578, 6311, 25000) was 30% and the inhibition at […] (read-out: inhibition of TNFα secretion, Dexamethasone 38 nM, Nortriptyline nM: 0, 52, 208, 834, 3336, 13000) was 31%. It also gave an inhibition at […] (read-out: percent inhibition of TNFα secretion, Dexamethasone 38 nM, Amitriptyline nM: 0, 50, 199, 796, 3186, 13000) of 31.1%, an inhibition at […] (read-out: percent inhibition of TNFα secretion, Dexamethasone 38 nM, Amoxapine nM: 0, 12, 50, 199, 797, 3187) of 32% and an inhibition at […] (read-out: percent inhibition of TNFα secretion, Dexamethasone 38 nM, Clomipramine nM: 0, 45, 178, 712, 2848, 11000) of 35.6%.
CC(=O)OCC(=O)[C@@]1(OC(C)=O)[C@@H](C)C[C@H]2[C@@H]3C[C@H](F)C4=CC(=O)C=C[C@]4(C)[C@@]3(F)[C@@H](O)C[C@@]21C [Diflorasone Diacetate] was tested, and the inhibition at 0.03 µM (read-out: inhibition of TNFα secretion, Diflorasone Diacetate 30 nM, Desipramine nM: 0, 50, 200, 799, 3197, 13000) was 25.4%, the inhibition at 0.03 µM (read-out: inhibition of TNFα secretion, Diflorasone Diacetate 30 nM, Imipramine nM: 0, 99, 394, 1578, 6311, 25000) was 29.6% and the inhibition at 0.03 µM (read-out: inhibition of TNFα secretion, Diflorasone Diacetate 30 nM, Protriptyline nM: 0, 52, 208, 834, 3336, 13000) was 28.2%. The inhibition at 1.941 µM (read-out: inhibition of TNFα secretion, Diflorasone Diacetate 1941 nM, Desipramine nM: 0, 50, 200, 799, 3197, 13000) was 46.9%, the inhibition at 1.941 µM (read-out: inhibition of TNFα secretion, Diflorasone Diacetate 1941 nM, Imipramine nM: 0, 99, 394, 1578, 6311, 25000) was 45.8% and the inhibition at 1.941 µM (read-out: inhibition of TNFα secretion, Diflorasone Diacetate 1941 nM, Protriptyline nM: 0, 52, 208, 834, 3336, 13000) was 45.3%. It also gave an inhibition at 0.03 µM (read-out: percent inhibition of TNFα secretion, Diflorasone Diacetate 30 nM, Amitriptyline nM: 0, 50, 199, 796, 3186, 13000) of 26.1%, an inhibition at […] (read-out: percent inhibition of TNFα secretion, Diflorasone Diacetate 38 nM, Clomipramine nM by grid row: r5 0, r6 12, r7 50, r8 199, r9 797, r10 3187) of 43.2% and an inhibition at 1.941 µM (read-out: percent inhibition of TNFα secretion, Diflorasone Diacetate 1941 nM, Amitriptyline nM: 0, 50, 199, 796, 3186, 13000) of 45.2%.
C[C@]12CCC(=O)C=C1CC[C@@H]1[C@@H]2[C@@H](O)C[C@@]2(C)[C@H]1CC[C@]2(O)C(=O)CO [Hydrocortisone, hydrocortisone] gave an inhibition at […] (read-out: inhibition of TNFα secretion, Hydrocortisone 21 nM, Desipramine nM: 0, 50, 200, 799, 3197, 13000) of -1.79%, an inhibition at […] (read-out: inhibition of TNFα secretion, Hydrocortisone 21 nM, Imipramine nM: 0, 99, 394, 1578, 6311, 25000) of -4.17% and an inhibition at […] (read-out: inhibition of TNFα secretion, Hydrocortisone 21 nM, Nortriptyline nM: 0, 52, 208, 834, 3336, 13000) of 4.44%. For the same compound, the inhibition at […] (read-out: inhibition of TNFα secretion, Hydrocortisone 21 nM, Protriptyline nM: 0, 52, 208, 834, 3336, 13000) was 2.86%, the inhibition at […] (read-out: inhibition of TNFα secretion, Hydrocortisone 83 nM, Desipramine nM: 0, 50, 200, 799, 3197, 13000) was 9.01% and the inhibition at […] (read-out: inhibition of TNFα secretion, Hydrocortisone 83 nM, Imipramine nM: 0, 99, 394, 1578, 6311, 25000) was 5.91%. For the same compound, the inhibition at […] (read-out: inhibition of TNFα secretion, Hydrocortisone 83 nM, Nortriptyline nM: 0, 52, 208, 834, 3336, 13000) was 13.6%, the inhibition at […] (read-out: inhibition of TNFα secretion, Hydrocortisone 83 nM, Protriptyline nM: 0, 52, 208, 834, 3336, 13000) was 13.6% and the inhibition at 1.324 µM (read-out: inhibition of TNFα secretion, Hydrocortisone 1324 nM, Desipramine nM: 0, 50, 200, 799, 3197, 13000) was 34.4%. The inhibition at 1.324 µM (read-out: inhibition of TNFα secretion, Hydrocortisone 1324 nM, Imipramine nM: 0, 99, 394, 1578, 6311, 25000) was 30.3%, the inhibition at 1.324 µM (read-out: inhibition of TNFα secretion, Hydrocortisone 1324 nM, Nortriptyline nM: 0, 52, 208, 834, 3336, 13000) was 35.7% and the inhibition at 1.324 µM (read-out: inhibition of TNFα secretion, Hydrocortisone 1324 nM, Protriptyline nM: 0, 52, 208, 834, 3336, 13000) was 36.8%. It also gave an inhibition at 5.297 µM (read-out: inhibition of TNFα secretion, Hydrocortisone 5297 nM, Desipramine nM: 0, 50, 200, 799, 3197, 13000) of 38.6%, an inhibition at 5.297 µM (read-out: inhibition of TNFα secretion, Hydrocortisone 5297 nM, Imipramine nM: 0, 99, 394, 1578, 6311, 25000) of 33.8% and an inhibition at 5.297 µM (read-out: inhibition of TNFα secretion, Hydrocortisone 5297 nM, Nortriptyline nM: 0, 52, 208, 834, 3336, 13000) of 36.5%. The inhibition at 5.297 µM (read-out: inhibition of TNFα secretion, Hydrocortisone 5297 nM, Protriptyline nM: 0, 52, 208, 834, 3336, 13000) was 38.2%, the inhibition at […] (read-out: percent inhibition of TNFα secretion, Hydrocortisone 21 nM, Amitriptyline nM: 0, 50, 199, 796, 3186, 13000) was -2.95% and the inhibition at […] (read-out: percent inhibition of TNFα secretion, Hydrocortisone 21 nM, Amoxapine nM: 0, 12, 50, 199, 797, 3187) was 1.78%. For the same compound, the inhibition at […] (read-out: percent inhibition of TNFα secretion, Hydrocortisone 21 nM, Clomipramine nM: 0, 45, 178, 712, 2848, 11000) was -0.248%, the inhibition at […] (read-out: percent inhibition of TNFα secretion, Hydrocortisone 83 nM, Amitriptyline nM: 0, 50, 199, 796, 3186, 13000) was 5.95% and the inhibition at […] (read-out: percent inhibition of TNFα secretion, Hydrocortisone 83 nM, Amoxapine nM: 0, 12, 50, 199, 797, 3187) was 11.4%. For the same compound, the inhibition at […] (read-out: percent inhibition of TNFα secretion, Hydrocortisone 83 nM, Clomipramine nM: 0, 45, 178, 712, 2848, 11000) was 9.9%, the inhibition at 1.324 µM (read-out: percent inhibition of TNFα secretion, Hydrocortisone 1324 nM, Amitriptyline nM: 0, 50, 199, 796, 3186, 13000) was 32.2% and the inhibition at 1.324 µM (read-out: percent inhibition of TNFα secretion, Hydrocortisone 1324 nM, Amoxapine nM: 0, 12, 50, 199, 797, 3187) was 31.6%. For the same compound, the inhibition at 1.324 µM (read-out: percent inhibition of TNFα secretion, Hydrocortisone 1324 nM, Clomipramine nM: 0, 45, 178, 712, 2848, 11000) was 33%, the inhibition at 5.297 µM (read-out: percent inhibition of TNFα secretion, Hydrocortisone 5297 nM, Amitriptyline nM: 0, 50, 199, 796, 3186, 13000) was 36.9% and the inhibition at 5.297 µM (read-out: percent inhibition of TNFα secretion, Hydrocortisone 5297 nM, Amoxapine nM: 0, 12, 50, 199, 797, 3187) was 31.9%. The inhibition at 5.297 µM (read-out: percent inhibition of TNFα secretion, Hydrocortisone 5297 nM, Clomipramine nM: 0, 45, 178, 712, 2848, 11000) was 37.1%.

Reference: patent publication US20090075951A1, “Methods and Reagents for the Treatment of Inflammatory Disorders” (CombinatoRx, Inc., priority 2003, published 2009)
